Columns and labels:
Type in all cases: in vivo
[1] = tested on: Avena fatua (AVEFA); assay: Glasshouse herbicide test, pre- and post-emergence, Avena fatua; conditions: 250 g/h, evaluated after 13 days; for AVEFA POST, percentage damage caused to the plant (five point scale): post-emergence; for AVEFA PRE, percentage damage caused to the plant (five point scale): pre-emergence
Procedure: (§1) Seeds of a variety of test species are sown in standard soil in pots (Lolium perenne (LOLPE), Setaria faberi (SETFA), Alopecurus myosuroides (ALOMY), Echinochloa crus-galli (ECHCG), Avena fatua (AVEFA)). After cultivation for one day (pre-emergence) or after 8 days cultivation (post-emergence) under controlled conditions in a glasshouse (at 24/16° C., day/night; 14 hours light; 65% humidity), the plants are sprayed with an aqueous spray solution derived from the formulation of the technical active ingredient in acetone/water (50:50) solution containing 0.5% Tween 20 (polyoxyethelyene sorbitan monolaurate, CAS RN 9005-64-5). Compounds are applied at […]. The test plants are then grown in a glasshouse under controlled conditions in a glasshouse (at 24/16° C., day/night; 14 hours light; 65% humidity) and watered twice daily. After 13 days for pre and post-emergence, the test is evaluated for the percentage damage caused to the plant. The biological activities are shown in the following table on a five point scale (5=80-100%; 4=60-79%; 3=40-59%; 2=20-39%; 1=0-19%).

[2] = tested on: Echinochloa crus-galli (ECHCG); assay: Glasshouse herbicide test, pre- and post-emergence, Echinochloa crus-galli; conditions: 250 g/h, evaluated after 13 days; for ECHCG POST, percentage damage caused to the plant (five point scale): post-emergence; for ECHCG PRE, percentage damage caused to the plant (five point scale): pre-emergence
Procedure: as §1

[3] = tested on: Alopecurus myosuroides (ALOMY); assay: Glasshouse herbicide test, pre- and post-emergence, Alopecurus myosuroides; conditions: 250 g/h, evaluated after 13 days; for ALOMY POST, percentage damage caused to the plant (five point scale): post-emergence; for ALOMY PRE, percentage damage caused to the plant (five point scale): pre-emergence
Procedure: as §1

[4] = tested on: Setaria faberi (SETFA); assay: Glasshouse herbicide test, pre- and post-emergence, Setaria faberi; conditions: 250 g/h, evaluated after 13 days; for SETFA POST, percentage damage caused to the plant (five point scale): post-emergence; for SETFA PRE, percentage damage caused to the plant (five point scale): pre-emergence
Procedure: as §1

[5] = tested on: Lolium perenne (LOLPE); assay: Glasshouse herbicide test, pre- and post-emergence, Lolium perenne; conditions: 250 g/h, evaluated after 13 days; for LOLPE POST, percentage damage caused to the plant (five point scale): post-emergence; for LOLPE PRE, percentage damage caused to the plant (five point scale): pre-emergence
Procedure: as §1

CC#Cc1ccc(C2=C(OC(C)=O)[C@@H]3[C@H](C2=O)[C@@H]2O[C@H]3C[C@@H]2COC)c(OC)c1 (racemic) [Compound 1.29]
5 (5=80-100%): AVEFA POST, percentage damage caused to the plant (five point scale) [1] | AVEFA PRE, percentage damage caused to the plant (five point scale) [1] | ECHCG POST, percentage damage caused to the plant (five point scale) [2] | ECHCG PRE, percentage damage caused to the plant (five point scale) [2] | ALOMY POST, percentage damage caused to the plant (five point scale) [3] | ALOMY PRE, percentage damage caused to the plant (five point scale) [3] | SETFA POST, percentage damage caused to the plant (five point scale) [4] | SETFA PRE, percentage damage caused to the plant (five point scale) [4] | LOLPE POST, percentage damage caused to the plant (five point scale) [5] | LOLPE PRE, percentage damage caused to the plant (five point scale) [5]

CC#Cc1ccc(C2C(=O)[C@@H]3[C@H](C2=O)[C@@H]2O[C@H]3C[C@]2(C)OC)c(OC)c1 (mixture of isomers) [Compound 1.33]
5 (5=80-100%): AVEFA POST, percentage damage caused to the plant (five point scale) [1] | AVEFA PRE, percentage damage caused to the plant (five point scale) [1] | ECHCG POST, percentage damage caused to the plant (five point scale) [2] | ECHCG PRE, percentage damage caused to the plant (five point scale) [2] | ALOMY POST, percentage damage caused to the plant (five point scale) [3] | ALOMY PRE, percentage damage caused to the plant (five point scale) [3] | SETFA POST, percentage damage caused to the plant (five point scale) [4] | SETFA PRE, percentage damage caused to the plant (five point scale) [4] | LOLPE POST, percentage damage caused to the plant (five point scale) [5] | LOLPE PRE, percentage damage caused to the plant (five point scale) [5]

CC#Cc1ccc(C2C(=O)[C@@H]3[C@@H]4O[C@@H](C[C@@H]4C)[C@@H]3C2=O)c(OC)c1 (mixture of isomers) [Compound 1.3]
5 (5=80-100%): AVEFA POST, percentage damage caused to the plant (five point scale) [1] | AVEFA PRE, percentage damage caused to the plant (five point scale) [1] | ECHCG POST, percentage damage caused to the plant (five point scale) [2] | ECHCG PRE, percentage damage caused to the plant (five point scale) [2] | ALOMY POST, percentage damage caused to the plant (five point scale) [3] | ALOMY PRE, percentage damage caused to the plant (five point scale) [3] | SETFA POST, percentage damage caused to the plant (five point scale) [4] | SETFA PRE, percentage damage caused to the plant (five point scale) [4] | LOLPE POST, percentage damage caused to the plant (five point scale) [5] | LOLPE PRE, percentage damage caused to the plant (five point scale) [5]

CC#Cc1ccc(C2C(=O)[C@@H]3[C@H](C2=O)[C@H]2CC[C@@H]3O2)c(OCCC)c1 (mixture of isomers) [Compound 1.31]
5 (5=80-100%): AVEFA POST, percentage damage caused to the plant (five point scale) [1] | AVEFA PRE, percentage damage caused to the plant (five point scale) [1] | ECHCG POST, percentage damage caused to the plant (five point scale) [2] | ECHCG PRE, percentage damage caused to the plant (five point scale) [2] | ALOMY POST, percentage damage caused to the plant (five point scale) [3] | ALOMY PRE, percentage damage caused to the plant (five point scale) [3] | SETFA POST, percentage damage caused to the plant (five point scale) [4] | SETFA PRE, percentage damage caused to the plant (five point scale) [4] | LOLPE POST, percentage damage caused to the plant (five point scale) [5] | LOLPE PRE, percentage damage caused to the plant (five point scale) [5]

CC#Cc1ccc(C2C(=O)[C@@H]3[C@H](C2=O)[C@H]2C=C(C)[C@@H]3O2)c(OC)c1 (mixture of isomers) [Compound 1.16]
5 (5=80-100%): AVEFA POST, percentage damage caused to the plant (five point scale) [1] | AVEFA PRE, percentage damage caused to the plant (five point scale) [1] | ECHCG POST, percentage damage caused to the plant (five point scale) [2] | ECHCG PRE, percentage damage caused to the plant (five point scale) [2] | ALOMY POST, percentage damage caused to the plant (five point scale) [3] | ALOMY PRE, percentage damage caused to the plant (five point scale) [3] | SETFA POST, percentage damage caused to the plant (five point scale) [4] | SETFA PRE, percentage damage caused to the plant (five point scale) [4] | LOLPE POST, percentage damage caused to the plant (five point scale) [5] | LOLPE PRE, percentage damage caused to the plant (five point scale) [5]

CC#Cc1ccc(C2=C(OC(=O)C(C)(C)C)[C@@H]3[C@H](C2=O)[C@@H]2O[C@H]3C[C@@H]2COC)c(OC)c1 (racemic) [Compound 1.26]
5 (5=80-100%): AVEFA POST, percentage damage caused to the plant (five point scale) [1] | AVEFA PRE, percentage damage caused to the plant (five point scale) [1] | ECHCG POST, percentage damage caused to the plant (five point scale) [2] | ECHCG PRE, percentage damage caused to the plant (five point scale) [2] | ALOMY POST, percentage damage caused to the plant (five point scale) [3] | ALOMY PRE, percentage damage caused to the plant (five point scale) [3] | SETFA POST, percentage damage caused to the plant (five point scale) [4] | SETFA PRE, percentage damage caused to the plant (five point scale) [4] | LOLPE POST, percentage damage caused to the plant (five point scale) [5] | LOLPE PRE, percentage damage caused to the plant (five point scale) [5]

CC#Cc1ccc(C2C(=O)[C@@H]3[C@@H]4O[C@@H](C[C@H]4/C=N/OC)[C@@H]3C2=O)c(OC)c1 (mixture of isomers) [Compound 1.17]
5 (5=80-100%): AVEFA POST, percentage damage caused to the plant (five point scale) [1] | AVEFA PRE, percentage damage caused to the plant (five point scale) [1] | ECHCG POST, percentage damage caused to the plant (five point scale) [2] | ECHCG PRE, percentage damage caused to the plant (five point scale) [2] | ALOMY POST, percentage damage caused to the plant (five point scale) [3] | ALOMY PRE, percentage damage caused to the plant (five point scale) [3] | SETFA POST, percentage damage caused to the plant (five point scale) [4] | SETFA PRE, percentage damage caused to the plant (five point scale) [4] | LOLPE POST, percentage damage caused to the plant (five point scale) [5] | LOLPE PRE, percentage damage caused to the plant (five point scale) [5]

CC#Cc1ccc(C2C(=O)[C@@H]3[C@@H]4O[C@@H](C[C@@H]4COC)[C@@H]3C2=O)c(OC)c1 (mixture of isomers) [Compound 1.9, 8-methoxymethyl-4-[2-methoxy-4-(prop-1-yn-1-yl)phenyl]-10-oxatricyclo[5.2.1.0^2,6]decane-3,5-dione]
5 (5=80-100%): AVEFA POST, percentage damage caused to the plant (five point scale) [1] | AVEFA PRE, percentage damage caused to the plant (five point scale) [1] | ECHCG POST, percentage damage caused to the plant (five point scale) [2] | ECHCG PRE, percentage damage caused to the plant (five point scale) [2] | ALOMY POST, percentage damage caused to the plant (five point scale) [3] | ALOMY PRE, percentage damage caused to the plant (five point scale) [3] | SETFA POST, percentage damage caused to the plant (five point scale) [4] | SETFA PRE, percentage damage caused to the plant (five point scale) [4] | LOLPE POST, percentage damage caused to the plant (five point scale) [5] | LOLPE PRE, percentage damage caused to the plant (five point scale) [5]

CC#Cc1ccc(C2C(=O)[C@@H]3[C@@H]4O[C@@H](C[C@H]4COC)[C@@H]3C2=O)c(OC)c1 (mixture of isomers) [Compound 1.15]
5 (5=80-100%): AVEFA POST, percentage damage caused to the plant (five point scale) [1] | AVEFA PRE, percentage damage caused to the plant (five point scale) [1] | ECHCG POST, percentage damage caused to the plant (five point scale) [2] | ECHCG PRE, percentage damage caused to the plant (five point scale) [2] | ALOMY POST, percentage damage caused to the plant (five point scale) [3] | ALOMY PRE, percentage damage caused to the plant (five point scale) [3] | SETFA POST, percentage damage caused to the plant (five point scale) [4] | SETFA PRE, percentage damage caused to the plant (five point scale) [4] | LOLPE POST, percentage damage caused to the plant (five point scale) [5] | LOLPE PRE, percentage damage caused to the plant (five point scale) [5]

CC#Cc1ccc(C2C(=O)[C@@H]3[C@@H]4O[C@@H](C[C@H]4CC)[C@@H]3C2=O)c(OC)c1 (stereo partly drawn) [Compound 1.23]
5 (5=80-100%): AVEFA POST, percentage damage caused to the plant (five point scale) [1] | AVEFA PRE, percentage damage caused to the plant (five point scale) [1] | ECHCG POST, percentage damage caused to the plant (five point scale) [2] | ECHCG PRE, percentage damage caused to the plant (five point scale) [2] | ALOMY POST, percentage damage caused to the plant (five point scale) [3] | ALOMY PRE, percentage damage caused to the plant (five point scale) [3] | SETFA POST, percentage damage caused to the plant (five point scale) [4] | SETFA PRE, percentage damage caused to the plant (five point scale) [4] | LOLPE POST, percentage damage caused to the plant (five point scale) [5] | LOLPE PRE, percentage damage caused to the plant (five point scale) [5]

CC#Cc1ccc(C2=C(OC(=O)C(C)C)[C@@H]3[C@H](C2=O)[C@H]2CC[C@@H]3O2)c(OC)c1 (racemic) [Compound 1.1, isobutyric acid 4-(2-methoxy-4-prop-1-ynyl-phenyl)-5-oxo-10-oxa-tricyclo[5.2.1.0^2,6]dec-3-en-3-yl ester]
5 (5=80-100%): AVEFA POST, percentage damage caused to the plant (five point scale) [1] | AVEFA PRE, percentage damage caused to the plant (five point scale) [1] | ECHCG POST, percentage damage caused to the plant (five point scale) [2] | ECHCG PRE, percentage damage caused to the plant (five point scale) [2] | SETFA POST, percentage damage caused to the plant (five point scale) [4] | SETFA PRE, percentage damage caused to the plant (five point scale) [4] | LOLPE POST, percentage damage caused to the plant (five point scale) [5] | LOLPE PRE, percentage damage caused to the plant (five point scale) [5]
